Assay results taken from PubChem BioAssay (NCI).
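Tested at 5 concentrations; 48 h exposure; 96-well plates; endpoints linearly interpolated, else capped at highest concentration. At the TGI there is no net growth.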

How the values were obtained:
Experiment in all cases: inhibition of tumour cell growth, NCI panel, 48 h
[1] = system: MDA-N
[2] = system: OVCAR-4 ovarian
[3] = system: MCF7 breast
[4] = system: HCT-116 colon
[5] = system: NCI-H460 lung
[6] = system: HS 578T breast
[7] = system: IGROV1 ovarian
[8] = system: CCRF-CEM leukemia
[9] = system: LOX IMVI melanoma
[10] = system: SF-295 CNS
[11] = system: SF-268 CNS
[12] = system: MDA-MB-435
[13] = system: K-562 leukemia
[14] = system: OVCAR-8 ovarian
[15] = system: HL-60(TB) leukemia
[16] = system: SK-MEL-28 melanoma
[17] = system: A498 renal
[18] = system: OVCAR-3 ovarian
[19] = system: COLO 205 colon
[20] = system: NCI-H226 lung

Work on `COC(=O)CNS(=O)(=O)c1ccc(-c2c3nc(c(-c4ccc(S(=O)(=O)NCC(=O)OC)cc4)c4ccc([nH]4)c(-c4ccc(S(=O)(=O)NCC(=O)OC)cc4)c4nc(c(-c5ccc(S(=O)(=O)NCC(=O)OC)cc5)c5ccc2[nH]5)C=C4)C=C3)cc1` yielded a TGI [1] greater than 100 µM, a TGI [2] greater than 100 µM and a TGI [3] greater than 100 µM. It also gave a TGI [4] greater than 100 µM, a TGI [5] greater than 100 µM and a TGI [6] greater than 100 µM. The TGI [7] was greater than 100 µM, the TGI [8] was greater than 100 µM and the TGI [9] was greater than 100 µM. The TGI [10] was greater than 100 µM, the TGI [11] was greater than 100 µM and the TGI [12] was greater than 100 µM. It also gave a TGI [13] greater than 100 µM, a TGI [14] greater than 100 µM and a TGI [15] greater than 100 µM. For the same molecule, the TGI [16] was greater than 100 µM, the TGI [17] was greater than 100 µM and the TGI [18] was greater than 100 µM. It also gave a TGI [19] greater than 100 µM.
`CN(C)CCN(C)c1ccc2c(=O)n(CCN(C)C)c(=O)n3c4ccccc4c(=O)c1c23` was tested, and the TGI [20] was 1.59 µM, the TGI [1] was 2.89 µM and the TGI [2] was 2.27 µM. The TGI [3] was 11.3 µM, the TGI [4] was 3.14 µM and the TGI [5] was 2.23 µM. For the same molecule, the TGI [6] was 8.65 µM, the TGI [7] was 8.02 µM and the TGI [8] was 0.293 µM. The TGI [9] was 5.53 µM, the TGI [10] was 8.38 µM and the TGI [11] was 0.559 µM. For the same molecule, the TGI [12] was 3.18 µM, the TGI [14] was 7.15 µM and the TGI [16] was 6.81 µM. For the same molecule, the TGI [17] was 5.36 µM, the TGI [18] was 12.6 µM and the TGI [19] was 3.03 µM.
For `C/C=C\C(CC(=O)NCCC1CN(S(=O)(=O)c2ccc(C)cc2)c2ccccc21)CC(=O)OC` (configuration not stated), the TGI [1] was greater than 100 µM, the TGI [2] was greater than 100 µM and the TGI [3] was greater than 100 µM. It also gave a TGI [4] greater than 100 µM, a TGI [5] greater than 100 µM and a TGI [6] greater than 100 µM. The TGI [7] was greater than 100 µM, the TGI [10] was greater than 100 µM and the TGI [11] was greater than 100 µM. It also gave a TGI [12] greater than 100 µM, a TGI [13] greater than 100 µM and a TGI [14] greater than 100 µM. The TGI [16] was greater than 100 µM, the TGI [17] was greater than 100 µM and the TGI [18] was greater than 100 µM. For the same molecule, the TGI [19] was greater than 100 µM.
`O=C1NCc2ccccc2S(=O)(=O)n2cccc21` gave a TGI [20] greater than 100 µM, a TGI [1] greater than 100 µM and a TGI [2] greater than 100 µM. For the same molecule, the TGI [3] was greater than 100 µM, the TGI [4] was greater than 100 µM and the TGI [5] was greater than 100 µM. The TGI [6] was greater than 100 µM, the TGI [7] was greater than 100 µM and the TGI [8] was greater than 100 µM. For the same molecule, the TGI [9] was greater than 100 µM, the TGI [10] was greater than 100 µM and the TGI [11] was greater than 100 µM. It also gave a TGI [12] greater than 100 µM, a TGI [14] greater than 100 µM and a TGI [15] greater than 100 µM. The TGI [16] was greater than 100 µM, the TGI [18] was greater than 100 µM and the TGI [19] was greater than 100 µM.
Work on `CN(C)C(=S)/N=c1\ssc(=S)n1Cc1ccccc1` yielded a TGI [20] of 28 µM, a TGI [1] of 1.21 µM and a TGI [2] of 30.2 µM. The TGI [3] was greater than 46.4 µM, the TGI [4] was 29.6 µM and the TGI [5] was 22.6 µM. The TGI [7] was greater than 46.4 µM, the TGI [8] was 49.6 µM and the TGI [9] was greater than 63.1 µM. The TGI [10] was 6.29 µM, the TGI [11] was greater than 63.1 µM and the TGI [12] was 0.269 µM. It also gave a TGI [13] of 12.5 µM, a TGI [14] of 17.7 µM and a TGI [15] of 5.31 µM. It also gave a TGI [16] greater than 63.1 µM, a TGI [17] greater than 69.5 µM and a TGI [18] of 0.512 µM. The TGI [19] was 1.95 µM.
For `C[C@H](NC(=O)c1ccc(CNC(=O)/C=C/c2cccc(Oc3ccccc3)c2)cc1)c1ccccc1`, the TGI [20] was greater than 100 µM, the TGI [1] was greater than 100 µM and the TGI [2] was greater than 100 µM. For the same molecule, the TGI [3] was greater than 100 µM, the TGI [4] was greater than 100 µM and the TGI [5] was greater than 100 µM. The TGI [6] was greater than 100 µM, the TGI [7] was greater than 100 µM and the TGI [8] was greater than 100 µM. The TGI [9] was greater than 100 µM, the TGI [10] was greater than 100 µM and the TGI [11] was greater than 100 µM. For the same molecule, the TGI [12] was greater than 100 µM, the TGI [13] was greater than 100 µM and the TGI [14] was greater than 100 µM. It also gave a TGI [16] greater than 100 µM, a TGI [17] greater than 100 µM and a TGI [18] greater than 100 µM. It also gave a TGI [19] greater than 100 µM.
Work on `CN(C)CCCNc1ccc([N+](=O)[O-])c2nc3ccccc3c(N)c12` yielded a TGI [20] greater than 10 µM, a TGI [1] of 2.18 µM and a TGI [2] of 0.595 µM. For the same molecule, the TGI [3] was greater than 10 µM, the TGI [4] was 1.33 µM and the TGI [5] was 1.38 µM. The TGI [6] was greater than 10 µM, the TGI [7] was 6.47 µM and the TGI [8] was 2.99 µM. The TGI [9] was 1.63 µM, the TGI [10] was 1.53 µM and the TGI [11] was 4.92 µM. It also gave a TGI [12] of 2.26 µM, a TGI [13] of 2.27 µM and a TGI [16] greater than 10 µM. The TGI [17] was 6.92 µM and the TGI [18] was 5.05 µM.
Work on `CCSc1n/c(=C\c2ccco2)c2nncn12` yielded a TGI [20] greater than 100 µM, a TGI [1] greater than 100 µM and a TGI [3] greater than 100 µM. For the same molecule, the TGI [4] was greater than 100 µM, the TGI [6] was greater than 100 µM and the TGI [7] was greater than 100 µM. It also gave a TGI [8] greater than 100 µM, a TGI [9] greater than 100 µM and a TGI [10] greater than 100 µM. For the same molecule, the TGI [11] was greater than 100 µM, the TGI [12] was greater than 100 µM and the TGI [13] was greater than 100 µM. It also gave a TGI [14] greater than 100 µM, a TGI [15] greater than 100 µM and a TGI [16] greater than 100 µM. For the same molecule, the TGI [18] was greater than 100 µM and the TGI [19] was greater than 100 µM.
`Cc1ccc(NC2=CC(=O)C(NO)c3ccccc32)cc1` (configuration not stated) showed a TGI [20] of 49.3 µM, a TGI [1] of 6.75 µM and a TGI [2] of 9.71 µM. The TGI [3] was 10.8 µM, the TGI [4] was 8.77 µM and the TGI [5] was 13.3 µM. For the same molecule, the TGI [7] was 4.6 µM, the TGI [9] was 11.7 µM and the TGI [10] was 15.4 µM. For the same molecule, the TGI [11] was 17.7 µM, the TGI [14] was 4.41 µM and the TGI [15] was 4.73 µM. For the same molecule, the TGI [16] was 29.5 µM, the TGI [17] was 33.4 µM and the TGI [18] was 5.57 µM. It also gave a TGI [19] of 8.72 µM.
Work on `CCCN(CCCc1ccccc1)CCc1ccc2[nH]c(=S)[nH]c2c1` yielded a TGI [20] greater than 100 µM, a TGI [1] of 41.7 µM and a TGI [2] greater than 100 µM. For the same molecule, the TGI [3] was greater than 100 µM, the TGI [4] was greater than 100 µM and the TGI [5] was 26.1 µM. The TGI [6] was greater than 100 µM, the TGI [7] was 79.9 µM and the TGI [9] was greater than 100 µM. It also gave a TGI [10] of 26 µM, a TGI [11] greater than 100 µM and a TGI [12] of 41.8 µM. It also gave a TGI [13] of 29.3 µM, a TGI [14] greater than 100 µM and a TGI [16] of 51.5 µM. For the same molecule, the TGI [17] was greater than 100 µM, the TGI [18] was greater than 100 µM and the TGI [19] was 42.6 µM.
